pIC50: −log10 of the molar value. Read-outs that look alike come from different tables or passages of the source.
Test system: up-regulation of ICAM-1 (CD54) by IFNγ in A549 lung epithelial cells
Assay: A549 Epithelial Line Stimulated with IFNγ (ICAM-1 surface expression, FACS)
Assay type: cell-based, human
Details: ICAM-1 expression by FACS, read-out: IC50, Example 43
Method in brief: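 A549 cells pre-incubated 1 h with compound (30 μM to 14 nM, 5% FBS, 0.3% DMSO), then stimulated with IFNγ (75 ng/mL) for 24 h. Surface ICAM-1 stained with APC anti-CD54 and read by flow cytometry; geometric mean of live-gated events plotted against concentration for EC50.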

[1] = A549 epithelial line stimulated with IFNγ
[2] = A549 cells stimulated with IFNγ

Q: With `CC(Oc1ccc(Nc2nc(Nc3cccc(S(N)(=O)=O)c3)ncc2F)cc1)C(N)=O` (racemic) [Compound I-117, Racemic N4-[4-(1-Aminocarbonyl)ethoxy]phenyl-N2-(3-aminosulfonyl)phenyl-5-fluoro-2,4-pyrimidinediamine] as the compound, how does the pIC50 [1] read?
A: Its pIC50 is 4.44.

Q: With `Cc1cc(Nc2nc(Nc3ccc(S(N)(=O)=O)cc3)ncc2F)ccc1OC(C)C(N)=O` (racemic) [Compound I-119, Racemic N4-[4-(1-Aminocarbonyl)ethoxy-3-methyl]phenyl-N2-(4-aminosulfonyl)phenyl-5-fluoro-2,4-pyrimidinediamine] as the compound, how does the pIC50 [1] read?
A: The pIC50 was 5.01.

Q: How did the pIC50 [1] turn out when `Cc1cc(Nc2nc(Nc3cccc(S(N)(=O)=O)c3)ncc2F)ccc1OC(C)C(N)=O` (racemic) [Compound I-120, Racemic N4-[4-(1-Aminocarbonyl)ethoxy-3-methyl]phenyl-N2-(3-aminosulfonyl)phenyl-5-fluoro-2,4-pyrimidinediamine] was run?
A: Its pIC50 is 4.70.

Q: `Cc1cc(Nc2nc(Nc3ccc(C)c(S(N)(=O)=O)c3)ncc2F)ccc1OC(C)C(N)=O` (racemic) [Compound I-121, Racemic N4-[4-(1-Aminocarbonyl)ethoxy-3-methyl]phenyl-N2-(3-aminosulfonyl-4-methyl)phenyl-5-fluoro-2,4-pyrimidinediamine] was tested. Which pIC50 [1] did it give?
A: Its pIC50 is 4.84.

Q: `Cc1cc(Nc2nc(Nc3cccc(S(N)(=O)=O)c3)ncc2F)cc(C)c1OC(C)C(N)=O` (racemic) [Compound I-123, Racemic N4-[4-(1-Aminocarbonyl)ethoxy-3,5-dimethyl]phenyl-N2-(3-aminosulfonyl)phenyl-5-fluoro-2,4-pyrimidinediamine] was tested. Which pIC50 [1] did it give?
A: The pIC50 was 4.89.

Q: How did the pIC50 [1] turn out when `Cc1ccc(Nc2ncc(F)c(Nc3cc(C)c(OC(C)C(N)=O)c(C)c3)n2)cc1S(N)(=O)=O` (racemic) [Compound I-124, Racemic N4-[4-(1-Aminocarbonyl)ethoxy-3,5-dimethyl]phenyl-N2-(3-aminosulfonyl-4-methyl)phenyl-5-fluoro-2,4-pyrimidinediamine] was run?
A: The pIC50 was 4.98.

Q: `CN1CCN(c2ccc(Nc3ncc(F)c(Nc4ccc(OCC#N)cc4)n3)cc2S(N)(=O)=O)CC1` [Compound I-9, N2-[3-Aminosulfonyl-4-(4-methylpiperazin-1-yl)phenyl]-5-fluoro-N4-(4-cyanomethyleneoxyphenyl)-2,4-pyrimidinediamine] was tested. Which pIC50 [1] did it give?
A: Its pIC50 is 4.81.

Q: `CN1CCN(c2ccc(Nc3ncc(F)c(Nc4ccc(OCC#N)c(F)c4)n3)cc2S(N)(=O)=O)CC1` [Compound I-10, N2-[3-Aminosulfonyl-4-(4-methylpiperazine-1-yl)phenyl]-5-fluoro-N4-(4-cyanomethyleneoxy-3-fluorophenyl)-2,4-pyrimidinediamine] was tested. Which pIC50 [1] did it give?
A: Its pIC50 is 5.18.

Q: `Cc1ccc(Nc2ncc(F)c(Nc3ccc(OCC#N)c(F)c3)n2)cc1S(N)(=O)=O` [Compound I-11, N2-(3-Aminosulfonyl-4-methylphenyl)-5-fluoro-N4-(4-cyanomethyleneoxy-3-fluorophenyl)-2,4-pyrimidinediamine] was tested. Which pIC50 [1] did it give?
A: Its pIC50 is 4.75.

Q: How did the pIC50 [1] turn out when `N#CCOc1ccc(Nc2nc(Nc3cccc(S(N)(=O)=O)c3)ncc2F)cc1F` [Compound I-12, N2-(3-Aminosulfonylphenyl)-5-fluoro-N4-(4-cyanomethyleneoxy-3-fluorophenyl)-2,4-pyrimidinediamine] was run?
A: The pIC50 was 5.50.

Q: With `N#CCOc1ccc(Nc2nc(Nc3cccc(S(N)(=O)=O)c3)ncc2Br)cc1` [Compound I-13, N2-(3-Aminosulfonylphenyl)-5-bromo-N4-(4-cyanomethyleneoxyphenyl)-2,4-pyrimidinediamine] as the compound, how does the pIC50 [1] read?
A: The pIC50 was 5.87.

Q: How did the pIC50 [1] turn out when `Cc1ccc(Nc2ncc(Br)c(Nc3ccc(OCC#N)cc3)n2)cc1S(N)(=O)=O` [Compound I-14, N2-(3-Aminosulfonyl-4-methylphenyl)-5-bromo-N4-(4-cyanomethyleneoxyphenyl)-2,4-pyrimidinediamine] was run?
A: Its pIC50 is 6.21.

Q: `Cc1ccc(Nc2ncc(F)c(Nc3cc(C)c(OCC(N)=O)c(C)c3)n2)cc1S(N)(=O)=O` [Compound I-96, N4-(4-Aminocarbonylmethoxy-3,5-dimethyl)phenyl-N2-(3-aminosulfonyl-4-methyl)phenyl-5-fluoro-2,4-pyrimidinediamine] was tested. Which pIC50 [1] did it give?
A: The pIC50 was 4.39.

Q: With `NS(=O)(=O)c1cccc(Nc2ncc(F)c(Nc3ccc(OCc4cccnc4)cc3)n2)c1` [Compound I-188, N2-(3-Aminosulfonylphenyl)-5-fluoro-N4-[4-(3-pyridinyl)methyleneoxyphenyl]-2,4-pyrimidinediamine] as the compound, how does the pIC50 [1] read?
A: Its pIC50 is 4.82.

Q: With `Cc1ccc(Nc2ncc(F)c(Nc3ccc(OCc4cccnc4)cc3)n2)cc1S(N)(=O)=O` [Compound I-189, N2-(3-Aminosulfonyl-4-methylphenyl)-5-fluoro-N4-[4-(3-pyridinyl)methyleneoxyphenyl]-2,4-pyrimidinediamine] as the compound, how does the pIC50 [1] read?
A: Its pIC50 is 5.17.

Q: With `CNS(=O)(=O)c1cc(Nc2ncc(F)c(Nc3ccc(OCc4cccnc4)cc3)n2)ccc1C` [Compound I-190, 5-Fluoro-N2-[3-(N-methylaminosulfony)-4-methylphenyl]-5-fluoro-N4-[4-(3-pyridinyl)methyleneoxyphenyl]-2,4-pyrimidinediamine] as the compound, how does the pIC50 [1] read?
A: The pIC50 was 5.03.

Q: With `Cc1ccc(Nc2ncc(F)c(Nc3ccc(OCc4ccncc4)cc3)n2)cc1S(N)(=O)=O` [Compound I-194, N2-(3-Aminosulfonyl-4-methylphenyl)-5-fluoro-N4-[4-(4-pyridinyl)methyleneoxyphenyl]-2,4-pyrimidinediamine] as the compound, how does the pIC50 [1] read?
A: Its pIC50 is 5.30.

Q: `Cc1ccc(Nc2nc(Nc3ccc(S(N)(=O)=O)cc3)ncc2F)cc1OCC(=O)N1CCOCC1` [Compound I-209, N2-(4-Aminosulfonylphenyl)-5-fluoro-N4-[4-methyl-3-(2-morpholinocarbonylmethyleneoxy)phenyl]-2,4-pyrimidinediamine] was tested. Which pIC50 [1] did it give?
A: Its pIC50 is 5.53.

Q: With `N#CCn1ccc2cc(Nc3nc(Nc4cccc(S(N)(=O)=O)c4)ncc3F)ccc21` [IX-5, N2-(3-Aminosulfonylphenyl)-N4-(1-cyanomethyleneindol-5-yl)-5-fluoro-2,4-pyrimidinediamine] as the compound, how does the pIC50 [2] read?
A: The pIC50 was 5.21.

Q: How did the pIC50 [2] turn out when `N#CCn1ccc2cc(Nc3nc(Nc4ccc(S(N)(=O)=O)cc4)ncc3F)ccc21` [IX-6, N2-(4-Aminosulfonylphenyl)-N4-(1-cyanomethyleneindol-5-yl)-5-fluoro-2,4-pyrimidinediamine] was run?
A: The pIC50 was 4.43.

Q: How did the pIC50 [2] turn out when `Cc1ccc(Nc2ncc(F)c(Nc3ccc4c(ccn4CC#N)c3)n2)cc1S(N)(=O)=O` [IX-8, N2-(3-Aminosulfonyl-4-methylphenyl)-N4-(1-cyanomethyleneindol-5-yl)-5-fluoro-2,4-pyrimidinediamine] was run?
A: The pIC50 was 5.28.

Q: `C#CCOc1ccc(Nc2nc(Nc3ccc(C)c(S(=O)(=O)NC4CCN(C)CC4)c3)ncc2F)cc1` [VI-69, 5-Fluoro-N2-{[4-methyl-3-((1-methylpiperidin-4-yl)aminosulfonyl)]phenyl} N4-[4-(prop-2-ynyloxy)phenyl]-2,4-pyrimidinediamine] was tested. Which pIC50 [2] did it give?
A: The pIC50 was 4.73.

Q: `CCS(=O)(=O)N1CCc2cc(Nc3nc(Nc4cccc(S(N)(=O)=O)c4)ncc3F)ccc2C1` [VII-14, N2-(3-aminosulfonyl)phenyl-N4-[(N-ethylsulfonyl)-1,2,3,4-tetrahydroisoquinolin-6-yl]-5-fluoro-2,4-pyrimidinediamine] was tested. Which pIC50 [2] did it give?
A: The pIC50 was 5.00.

Q: `CCS(=O)(=O)N1CCc2cc(Nc3nc(Nc4ccc(C)c(S(N)(=O)=O)c4)ncc3F)ccc2C1` [VII-15, N2-(3-aminosulfonyl-4-methyl)phenyl-N4-[(N-ethylsulfonyl)-1,2,3,4-tetrahydroisoquinolin-6-yl]-5-fluoro-2,4-pyrimidinediamine] was tested. Which pIC50 [2] did it give?
A: Its pIC50 is 4.88.

Q: How did the pIC50 [2] turn out when `CNC(=O)N1CCCc2cc(Nc3nc(Nc4ccc(C)c(S(N)(=O)=O)c4)ncc3F)ccc21` [VII-19, N2-(3-Aminosulfonyl-4-methylphenyl)-5-fluoro-N4-[1-(methylaminocarbonyl)-1,2,3,4-tetrahydroquin-6-yl]-2,4-pyrimidinediamine] was run?
A: Its pIC50 is 4.90.

Q: `COCCn1ncc2cc(Nc3nc(Nc4cccc(S(N)(=O)=O)c4)ncc3F)ccc21` [VII-23, N2-(3-Aminosulfonylphenyl)-5-fluoro-N4-[1-(2-methoxyethyl)indazolin-5-yl]-2,4-pyrimidinediamine] was tested. Which pIC50 [2] did it give?
A: The pIC50 was 4.21.

Q: `NC1CCOc2ccc(Nc3nc(Nc4cccc(S(N)(=O)=O)c4)ncc3F)cc21` (stereo not shown) [VII-28, N2-(3-Aminosulfonylphenyl)-N4-(chroman-4-amine-6-yl)-5-fluoro-2,4-pyrimidinediamine] was tested. Which pIC50 [2] did it give?
A: Its pIC50 is 4.78.

Q: With `NC1CCOc2ccc(Nc3nc(Nc4ccc(S(N)(=O)=O)cc4)ncc3F)cc21` (stereo not shown) [VII-29, N2-(4-Aminosulfonylphenyl)-N4-(chroman-4-amine-6-yl)-5-fluoro-2,4-pyrimidinediamine] as the compound, how does the pIC50 [2] read?
A: The pIC50 was 4.52.

Q: `N#CCN1C(=O)CSc2ccc(Nc3nc(Nc4cccc(S(N)(=O)=O)c4)ncc3F)cc21` [VII-36, N2-(3-Aminosulphonylphenyl)-5-fluoro-N4-(3-oxo-4-cyanomethyl-benzo[1,4]thiazin-6-yl)-2,4-pyrimidinediamine] was tested. Which pIC50 [2] did it give?
A: The pIC50 was 4.08.

Q: With `Cc1ccc(Nc2ncc(F)c(Nc3ccc4c(c3)NC(=O)CS4)n2)cc1S(N)(=O)=O` [VII-45, N2-(3-Aminosulphonyl-4-methyl-phenyl)-5-fluoro-N4-(3-oxo-4H-benzo[1,4]thiazin-6-yl)-2,4-pyrimidinediamine] as the compound, how does the pIC50 [2] read?
A: Its pIC50 is 5.39.

Q: `CN1C(=O)CSc2ccc(Nc3nc(Nc4cccc(S(=O)(=O)N5CCCCC5)c4)ncc3F)cc21` [VII-50, 5-Fluoro-N4-(4-methyl-3-oxo-benz[1,4]thiazin-6-yl)-N2-(3-pipendinosulfonylphenyl)-2,4-pyrimidinediamine] was tested. Which pIC50 [2] did it give?
A: Its pIC50 is 5.35.

Q: `CS(=O)(=O)N1CCc2cc(Nc3nc(Nc4cccc(S(N)(=O)=O)c4)ncc3F)ccc21` [VII-60, N2-(3-Aminosulfonylphenyl)-5-fluoro-N4-[4-(1-methylsulfonyl)indolin-5-yl]-2,4-pyrimidinediamine] was tested. Which pIC50 [2] did it give?
A: Its pIC50 is 5.58.

Q: With “N2-(3-Aminosulfonyl-4-methylphenyl)-5-fluoro-N4-[4-(2-pyridinyl)-3-fluoromethyleneoxyphenyl]-2,4-pyrimidinediamine [Compound I-172]” as the compound, how does the pIC50 [1] read?
A: The pIC50 was 4.41.

Q: With “N2-[3-Aminosulfonyl-4-(4-methylpiperazine-1-yl)phenyl]-N4-(3-cyanomethylene-1H-indol-6-yl)-5-fluoro-2,4-pyrimidinediamine [IX-17]” as the compound, how does the pIC50 [2] read?
A: The pIC50 was 4.66.

Source: patent US11827628B2, “Compositions and methods for inhibition of the JAK pathway” (Rigel Pharmaceuticals, Inc., priority 2005, dated 2023)
